Laboratory results as given in patent publication US12194124B2, “Personal care compositions for treating odor causing bacteria and methods for the same” (Colgate-Palmolive Company, priority 2019, dated 2025).

System: C. Striatum
Experiment: Growth inhibition assay in 96-well plate, optical density of C. Striatum
Assay type: cell-based, Corynebacterium striatum
Experimental: The efficacy of 2-butyl octanol for selectively promoting, inhibiting, reducing, and/or treating bacterial growth was evaluated. Particularly, the efficacy of 2-butyl octanol for selectively promoting, inhibiting, reducing, and/or treating bacterial growth of Corynebacterium and Staphylococcus was evaluated. To evaluate the efficacy, an active solution was prepared by emulsifying 2-butyl octanol with a nonionic surfactant, namely, Polysorbate 80. The active solution included the 2-butyl octanol and the Polysorbate 80 in a ratio of about 83:17. Both positive controls (including no active solution) and negative controls (including no bacteria) were also prepared.
A 96-well plate was utilized to evaluate the growth of the respective bacteria at varying dilutions. Each of the wells of a 96-well plate was aseptically filled with about 100 μL of Tryptic Soy Broth (TSB). In the first well of each row, about 100 μL of either the active solution (including the 2-butyl octanol and Polysorbate 80) or the desired solvent for the respective positive and negative controls was added to thereby provide a total of about 200 μL in the first well of the each respective row. A multi-channel pipette was then utilized to prepare a two-fold dilution in each column. Specifically, a multi-channel pipette set to about 100 μL was utilized to mix and transfer about 100 μL of the 200 μL from the wells of the first column to the respective wells of a subsequent column. This was repeated for each of the remaining eleven columns. About 100 μL of the twelfth column was removed, thereby leaving about 100 μL in each of the 96 wells. […] Specifically, a phosphate buffered saline (PBS) was utilized for the negative control. About 100 μL of the respective bacteria adjusted to 0.1 optical density (OD) bacteria was added to all other wells. The well plate was then incubated overnight at about 37° C. in a growth inhibition assay machine. Measurements were taken at about one hour increments.

## CCCCCCC(CO)CCCC (stereo not shown) [2-butyl octanol, 2-butyl-1-octanol]
0.02% 2-Butyl Octanol, 1 Hour
  Measured Optical Density of C. Striatum: 0
0.02% 2-Butyl Octanol, 2 Hour
  Measured Optical Density of C. Striatum: 0.086
0.02% 2-Butyl Octanol, 3 Hour
  Measured Optical Density of C. Striatum: 0.13
0.02% 2-Butyl Octanol, 4 Hour
  Measured Optical Density of C. Striatum: 0.139
0.02% 2-Butyl Octanol, 5 Hour
  Measured Optical Density of C. Striatum: 0.143
0.02% 2-Butyl Octanol, 6 Hour
  Measured Optical Density of C. Striatum: 0.144
0.02% 2-Butyl Octanol, 7 Hour
  Measured Optical Density of C. Striatum: 0.144
0.02% 2-Butyl Octanol, 8 Hour
  Measured Optical Density of C. Striatum: 0.144
0.02% 2-Butyl Octanol, 9 Hour
  Measured Optical Density of C. Striatum: 0.146
0.02% 2-Butyl Octanol, 10 Hour
  Measured Optical Density of C. Striatum: 0.149
0.02% 2-Butyl Octanol, 11 Hour
  Measured Optical Density of C. Striatum: 0.155
0.02% 2-Butyl Octanol, 12 Hour
  Measured Optical Density of C. Striatum: 0.163
0.02% 2-Butyl Octanol, 13 Hour
  Measured Optical Density of C. Striatum: 0.178
0.02% 2-Butyl Octanol, 14 Hour
  Measured Optical Density of C. Striatum: 0.21
0.02% 2-Butyl Octanol, 15 Hour
  Measured Optical Density of C. Striatum: 0.254
0.02% 2-Butyl Octanol, 16 Hour
  Measured Optical Density of C. Striatum: 0.322
0.02% 2-Butyl Octanol, 17 Hour
  Measured Optical Density of C. Striatum: 0.404
0.02% 2-Butyl Octanol, 18 Hour
  Measured Optical Density of C. Striatum: 0.52
0.04% 2-Butyl Octanol, 1 Hour
  Measured Optical Density of C. Striatum: 0.006
0.04% 2-Butyl Octanol, 2 Hour
  Measured Optical Density of C. Striatum: 0.058
0.04% 2-Butyl Octanol, 3 Hour
  Measured Optical Density of C. Striatum: 0.088
0.04% 2-Butyl Octanol, 4 Hour
  Measured Optical Density of C. Striatum: 0.1
0.04% 2-Butyl Octanol, 5 Hour
  Measured Optical Density of C. Striatum: 0.111
0.04% 2-Butyl Octanol, 6 Hour
  Measured Optical Density of C. Striatum: 0.117
0.04% 2-Butyl Octanol, 7 Hour
  Measured Optical Density of C. Striatum: 0.121
0.04% 2-Butyl Octanol, 8 Hour
  Measured Optical Density of C. Striatum: 0.124
0.04% 2-Butyl Octanol, 9 Hour
  Measured Optical Density of C. Striatum: 0.127
0.04% 2-Butyl Octanol, 10 Hour
  Measured Optical Density of C. Striatum: 0.13
0.04% 2-Butyl Octanol, 11 Hour
  Measured Optical Density of C. Striatum: 0.133
0.04% 2-Butyl Octanol, 12 Hour
  Measured Optical Density of C. Striatum: 0.136
0.04% 2-Butyl Octanol, 13 Hour
  Measured Optical Density of C. Striatum: 0.141
0.04% 2-Butyl Octanol, 14 Hour
  Measured Optical Density of C. Striatum: 0.149
0.04% 2-Butyl Octanol, 15 Hour
  Measured Optical Density of C. Striatum: 0.166
0.04% 2-Butyl Octanol, 16 Hour
  Measured Optical Density of C. Striatum: 0.192
0.04% 2-Butyl Octanol, 17 Hour
  Measured Optical Density of C. Striatum: 0.234
0.04% 2-Butyl Octanol, 18 Hour
  Measured Optical Density of C. Striatum: 0.298
0.08% 2-Butyl Octanol, 1 Hour
  Measured Optical Density of C. Striatum: 0.014
0.08% 2-Butyl Octanol, 2 Hour
  Measured Optical Density of C. Striatum: 0.07
0.08% 2-Butyl Octanol, 3 Hour
  Measured Optical Density of C. Striatum: 0.108
0.08% 2-Butyl Octanol, 4 Hour
  Measured Optical Density of C. Striatum: 0.118
0.08% 2-Butyl Octanol, 5 Hour
  Measured Optical Density of C. Striatum: 0.124
0.08% 2-Butyl Octanol, 6 Hour
  Measured Optical Density of C. Striatum: 0.127
0.08% 2-Butyl Octanol, 7 Hour
  Measured Optical Density of C. Striatum: 0.129
0.08% 2-Butyl Octanol, 8 Hour
  Measured Optical Density of C. Striatum: 0.131
0.08% 2-Butyl Octanol, 9 Hour
  Measured Optical Density of C. Striatum: 0.132
0.08% 2-Butyl Octanol, 10 Hour
  Measured Optical Density of C. Striatum: 0.133
0.08% 2-Butyl Octanol, 11 Hour
  Measured Optical Density of C. Striatum: 0.133
0.08% 2-Butyl Octanol, 12 Hour
  Measured Optical Density of C. Striatum: 0.134
0.08% 2-Butyl Octanol, 13 Hour
  Measured Optical Density of C. Striatum: 0.137
0.08% 2-Butyl Octanol, 14 Hour
  Measured Optical Density of C. Striatum: 0.141
0.08% 2-Butyl Octanol, 15 Hour
  Measured Optical Density of C. Striatum: 0.151
0.08% 2-Butyl Octanol, 16 Hour
  Measured Optical Density of C. Striatum: 0.168
0.08% 2-Butyl Octanol, 17 Hour
  Measured Optical Density of C. Striatum: 0.194
0.08% 2-Butyl Octanol, 18 Hour
  Measured Optical Density of C. Striatum: 0.23
0.16% 2-Butyl Octanol, 1 Hour
  Measured Optical Density of C. Striatum: 0.038
0.16% 2-Butyl Octanol, 2 Hour
  Measured Optical Density of C. Striatum: 0.037
0.16% 2-Butyl Octanol, 3 Hour
  Measured Optical Density of C. Striatum: 0.036
0.16% 2-Butyl Octanol, 4 Hour
  Measured Optical Density of C. Striatum: 0.036
0.16% 2-Butyl Octanol, 5 Hour
  Measured Optical Density of C. Striatum: 0.036
0.16% 2-Butyl Octanol, 6 Hour
  Measured Optical Density of C. Striatum: 0.036
0.16% 2-Butyl Octanol, 7 Hour
  Measured Optical Density of C. Striatum: 0.035
0.16% 2-Butyl Octanol, 8 Hour
  Measured Optical Density of C. Striatum: 0.036
0.16% 2-Butyl Octanol, 9 Hour
  Measured Optical Density of C. Striatum: 0.036
0.16% 2-Butyl Octanol, 10 Hour
  Measured Optical Density of C. Striatum: 0.037
0.16% 2-Butyl Octanol, 11 Hour
  Measured Optical Density of C. Striatum: 0.037
0.16% 2-Butyl Octanol, 12 Hour
  Measured Optical Density of C. Striatum: 0.037
0.16% 2-Butyl Octanol, 13 Hour
  Measured Optical Density of C. Striatum: 0.038
0.16% 2-Butyl Octanol, 14 Hour
  Measured Optical Density of C. Striatum: 0.038
0.16% 2-Butyl Octanol, 15 Hour
  Measured Optical Density of C. Striatum: 0.039
0.16% 2-Butyl Octanol, 16 Hour
  Measured Optical Density of C. Striatum: 0.04
0.16% 2-Butyl Octanol, 17 Hour
  Measured Optical Density of C. Striatum: 0.041
0.16% 2-Butyl Octanol, 18 Hour
  Measured Optical Density of C. Striatum: 0.041
2-butyl octanol at least about 1.6% or greater (Table 3)
  growth of C. stratium: completely inhibited
